We go through 14 molecules from paper PMC9637864 (Current Research in Toxicology, 2022).

“Also recorded” adds a separate entry of the source. Like-named read-outs stand apart in the source and are kept apart here. Some results are limits rather than exact numbers.

Data set [1] deals with T1, medaka FXRα2 (Oryzias latipes, UniProt H2M6M7).
T1 sequence (H2M6M7 1-485): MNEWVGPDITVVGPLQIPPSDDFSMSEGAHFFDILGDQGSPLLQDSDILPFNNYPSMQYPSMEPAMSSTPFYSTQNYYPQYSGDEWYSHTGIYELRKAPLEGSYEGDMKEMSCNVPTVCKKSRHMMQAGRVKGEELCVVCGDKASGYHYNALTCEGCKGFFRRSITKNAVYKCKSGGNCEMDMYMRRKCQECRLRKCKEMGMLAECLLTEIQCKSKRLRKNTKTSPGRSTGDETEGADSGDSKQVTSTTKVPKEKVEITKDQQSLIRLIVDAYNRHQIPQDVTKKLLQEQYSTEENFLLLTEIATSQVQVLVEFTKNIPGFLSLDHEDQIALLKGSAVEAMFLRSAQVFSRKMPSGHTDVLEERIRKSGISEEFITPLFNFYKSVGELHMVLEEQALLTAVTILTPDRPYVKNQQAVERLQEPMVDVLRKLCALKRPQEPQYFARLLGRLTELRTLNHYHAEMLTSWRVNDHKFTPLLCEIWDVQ
As to the kind of experiment: Transient transactivation luciferase assay in HEK293T cells, antagonist mode. Format: cell-based. Conditions: Antagonists, in the presence of GW4064.

Data set [2] addresses T2, human FXRα (Homo sapiens, UniProt Q96RI1).
T2 sequence (Q96RI1 1-486): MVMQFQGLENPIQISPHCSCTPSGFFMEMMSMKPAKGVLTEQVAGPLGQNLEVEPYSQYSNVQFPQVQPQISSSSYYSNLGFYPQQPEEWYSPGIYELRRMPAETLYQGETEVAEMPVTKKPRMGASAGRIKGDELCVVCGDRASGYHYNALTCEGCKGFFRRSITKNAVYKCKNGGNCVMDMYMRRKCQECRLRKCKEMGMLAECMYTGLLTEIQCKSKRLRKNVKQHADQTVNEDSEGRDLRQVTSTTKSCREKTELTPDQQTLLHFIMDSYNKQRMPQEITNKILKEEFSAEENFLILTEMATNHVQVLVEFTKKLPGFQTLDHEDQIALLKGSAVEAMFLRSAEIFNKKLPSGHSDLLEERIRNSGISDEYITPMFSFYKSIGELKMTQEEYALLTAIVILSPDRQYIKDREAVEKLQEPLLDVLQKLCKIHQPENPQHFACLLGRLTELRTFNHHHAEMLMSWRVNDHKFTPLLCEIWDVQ
T2 sequence (P19793 1-462 partner): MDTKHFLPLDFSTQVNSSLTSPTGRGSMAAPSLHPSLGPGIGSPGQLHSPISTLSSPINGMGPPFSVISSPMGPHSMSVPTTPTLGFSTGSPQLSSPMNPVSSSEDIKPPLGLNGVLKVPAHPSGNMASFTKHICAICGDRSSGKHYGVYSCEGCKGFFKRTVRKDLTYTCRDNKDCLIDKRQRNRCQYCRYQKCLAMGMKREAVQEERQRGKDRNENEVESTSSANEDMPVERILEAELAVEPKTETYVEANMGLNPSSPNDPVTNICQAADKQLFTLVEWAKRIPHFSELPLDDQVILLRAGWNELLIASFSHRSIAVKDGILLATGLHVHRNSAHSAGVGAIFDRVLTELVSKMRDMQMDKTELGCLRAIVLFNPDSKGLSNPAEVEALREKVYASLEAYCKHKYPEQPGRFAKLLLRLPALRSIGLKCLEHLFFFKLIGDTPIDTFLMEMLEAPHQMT
As to the kind of experiment: cell-based.

Data set [3] deals with Human FXRa. Particulars: Antagonists, cited from earlier work; for Tox21 Results Human FXRa Activity Human FXRa: Hsu et al. 2016; for AC50: Tox21 qHTS, ref US EPA CompTox Chemicals Dashboard. (Quantitative high-throughput screening tests each substance at several concentrations.)
A further data set has as its system medaka larvae. As to the kind of experiment: Toxicity to medaka larvae during in vivo exposure. Conditions: between 0.5 and 10 µM. Also on record: species or system Medaka (Oryzias latipes).
Data set [4] has as its target T2, human FXRα. Format: cell-based.
For data set [5], the target named is T1, medaka FXRα2. As to the kind of experiment: Transient transactivation luciferase assay in HEK293T cells, agonist mode. Format: cell-based.
Data set [6] has as its system Human FXRa. Particulars: Agonists, cited from earlier work.
Data set [7] deals with NR box of human PGC1α fused to the yeast Gal4 DNA-binding domain (pM-PGC1α) (human) (UniProt Q9UBK2). As to the kind of experiment: two-hybrid.
For data set [8] the target is unchanged. The data set can be described thus: two-hybrid. The source holds these as a separate data set.
Setting [9] is: read-out: Current Study Human FXRa AC50.
Setting [10] is: Tox21 qHTS, ref US EPA CompTox Chemicals Dashboard.
The mark [11] stands for this setting: Agonists, HEK293T, 24 h, listed as prometon.
Where [12] appears, read: Agonists, HEK293T, 24 h, listed as maleic hydrazide.

Sequence of NR box of human PGC1α fused to the yeast Gal4 DNA-binding domain (pM-PGC1α) (human) (Q9UBK2 whole entry, the tested form may be a part): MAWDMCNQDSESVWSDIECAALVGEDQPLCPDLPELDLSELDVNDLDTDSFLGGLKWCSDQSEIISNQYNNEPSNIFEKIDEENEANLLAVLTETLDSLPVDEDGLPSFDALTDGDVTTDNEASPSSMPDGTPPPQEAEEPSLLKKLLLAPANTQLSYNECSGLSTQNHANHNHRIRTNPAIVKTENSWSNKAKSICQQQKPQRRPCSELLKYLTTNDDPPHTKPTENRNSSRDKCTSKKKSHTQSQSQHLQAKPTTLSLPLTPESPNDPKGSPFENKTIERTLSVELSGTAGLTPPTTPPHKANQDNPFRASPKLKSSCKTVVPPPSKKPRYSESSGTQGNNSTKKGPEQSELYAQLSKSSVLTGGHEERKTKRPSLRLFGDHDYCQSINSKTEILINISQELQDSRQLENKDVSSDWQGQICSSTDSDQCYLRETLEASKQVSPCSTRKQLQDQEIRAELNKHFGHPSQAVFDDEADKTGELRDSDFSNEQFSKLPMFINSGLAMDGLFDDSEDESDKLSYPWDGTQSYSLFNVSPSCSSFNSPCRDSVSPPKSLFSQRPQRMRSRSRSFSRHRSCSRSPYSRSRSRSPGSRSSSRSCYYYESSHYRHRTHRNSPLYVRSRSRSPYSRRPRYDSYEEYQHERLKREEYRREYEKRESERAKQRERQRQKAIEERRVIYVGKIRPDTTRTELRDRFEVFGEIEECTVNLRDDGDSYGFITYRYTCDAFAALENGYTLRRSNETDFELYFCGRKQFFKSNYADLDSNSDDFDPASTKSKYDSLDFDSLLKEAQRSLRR

For `CCCCCCCC(=O)OCC(COC(=O)CCCCCCC)OC(=O)CCCCCCC` [Tricaprylin], the “Current Study Medaka FXRa2 Activity Medaka FXRa2” value is “Active” on medaka FXRα2 [1] and “exhibited antagonist activity” at medaka FXRα2 [1] (listed as tricaprylin). Moreover, the “Current Study Human FXRa Activity Human FXRa” value on human FXRα [2] is “Inactive”. Moreover, the “Tox21 Results Human FXRa Activity Human FXRa” value with Human FXRa [3] (ref Tox21 dataset) is reported as “Inactive”.
With `c1ccc(P(c2ccccc2)c2ccccc2)cc1` [Triphenylphosphine], the “cytotoxicity / toxicity to medaka larvae in agonist exposures” value (shortened to “cytotoxicity / toxicity to medaka larvae”) in the data set on medaka larvae is listed as “significant cytotoxicity”.
Usually AC50 stands for the midpoint of the concentration-response curve, whichever way the signal moves. For orientation: EC50 means the midpoint of the concentration-response curve. A high value points to a need for much substance. On to `CO/N=C1\C[C@]2(C[C@@H]3C[C@@H](C/C=C(\C)C[C@@H](C)/C=C/C=C4\CO[C@@H]5[C@H](O)C(C)=C[C@@H](C(=O)O3)[C@]45O)O2)O[C@H](/C(C)=C/C(C)C)[C@H]1C` [Moxidectin, reference compound], for which the “Current Study Medaka FXRa2 Activity Medaka FXRa2” value on medaka FXRα2 [1] is listed as “Active”. For the same molecule, at human FXRα [2], the AC50 worked out at 12.5 µM, the “Current Study Human FXRa Activity Human FXRa” value is “Active” and the EC50 came to 12.5 µM. In the data set on Human FXRa [3] (ref Tox21 dataset), the “Tox21 Results Human FXRa Activity Human FXRa” value is on record as “Active/Inactive”.
As for `C[C@@H]1C[C@H]2O[C@@]3(O[C@@H]2C(C)(C)O)[C@H](O)[C@@]2(C)[C@@H]4CC[C@H]5C(C)(C)[C@@H](O[C@@H]6OC[C@@H](O)[C@H](O)[C@H]6O)CC[C@@]56C[C@@]46CC[C@]2(C)[C@@H]13` [Cimicifugoside], the “Current Study Human FXRa Activity Human FXRa” value on human FXRα [4] is “Active”. Also, the AC50 on human FXRα [4] (setting [9]) was determined as 9.8 µM. On medaka FXRα2 [5] (Agonists, HEK293T, 24 h), the “Current Study Medaka FXRa2 Activity Medaka FXRa2” value is reported as “Active”. Besides, at medaka FXRα2 [5] (read-out: Current Study Medaka FXRa2 AC50, Agonists, HEK293T, 24 h), the AC50 is > 100 µM. Besides, in the data set on Human FXRa [6] (setting [10]), the AC50 is 5 µM and the “Activity Decision” value was “Active”. Besides, in the data set on Human FXRa [6] (ref Tox21 dataset), the “Tox21 Results Human FXRa AC50” value is reported as 5.52 µM and the “Tox21 Results Human FXRa Activity Human FXRa” value is on record as “Active”.
On to `COc1nc(NC(C)C)nc(NC(C)C)n1` [Prometon], for which the “Current Study Human FXRa Activity Human FXRa” value was “Inactive” at human FXRα [4] (Agonists, HEK293T, 24 h) and “confirmed inactive” at human FXRα [4] (setting [11]). The “Current Study Medaka FXRa2 Activity Medaka FXRa2” value was “Inactive” on medaka FXRα2 [5] (Agonists, HEK293T, 24 h) and “confirmed as inactive” at medaka FXRα2 [5] (setting [11]). For the same molecule, the “Activity Decision” value in the data set with Human FXRa [6] (setting [10]) is reported as “Inactive”. In the data set on Human FXRa [6] (ref Tox21 dataset), the “Tox21 Results Human FXRa Activity Human FXRa” value was “Inactive”.
As to `CCC(C)(c1ccc(O)cc1)c1ccc(O)cc1` [Bisphenol B], on medaka FXRα2 [1], the “Current Study Medaka FXRa2 Activity Medaka FXRa2” value is recorded as “Active”. In addition, the “Current Study Medaka FXRa2 Activity Medaka FXRa2” value on medaka FXRα2 [1] (listed as bisphenol B) is recorded as “exhibited antagonist activity”. Also, at human FXRα [2], the AC50 came out at 11.9 µM, the “Current Study Human FXRa Activity Human FXRa” value is recorded as “Active” and the EC50 was determined as 11.9 µM. The AC50 in the data set with Human FXRa [3] was 57.2 µM. Besides, in the data set on Human FXRa [3] (ref Tox21 dataset), the “Tox21 Results Human FXRa Activity Human FXRa” value was “Active”.
Take “VP16 activation domain fused to medaka FXRα2 (pVP16-mFXRα2) (receptor)”: in [7], the recruitment with moxidectin, percent (reference as for human FXRα: GW4064 alone) stood at 126%.
`O=c1ccc(=O)[nH][nH]1` [Maleic hydrazide]: in the data set with medaka larvae, the “cytotoxicity / toxicity to medaka larvae” value is “significant cytotoxicity”. Also, the “Current Study Human FXRa Activity Human FXRa” value at human FXRα [4] (Agonists, HEK293T, 24 h) was “Inactive”; on human FXRα [4] (setting [12]) it was “confirmed inactive”. In addition, the “Current Study Medaka FXRa2 Activity Medaka FXRa2” value is “Inactive” on medaka FXRα2 [5] (Agonists, HEK293T, 24 h) and “confirmed as inactive” on medaka FXRα2 [5] (setting [12]). In addition, in the data set on Human FXRa [6] (setting [10]), the “Activity Decision” value is listed as “Inactive”. For the same molecule, the “Tox21 Results Human FXRa Activity Human FXRa” value with Human FXRa [6] (ref Tox21 dataset) was “Inactive”.
`CC(C)c1onc(-c2c(Cl)cccc2Cl)c1COc1ccc(C=Cc2cccc(C(=O)O)c2)c(Cl)c1` [GW4064, 3-(2,6-Dichlorophenyl)-4-(3′-carboxy-2-chlorostilben-4-yl) oxymethyl-5-isopropylisoxazole, reference compound] gave an EC50 on medaka FXRα2 [5] of 0.269 µM.
In the case of `Cc1c(COC(=O)[C@@H]2[C@H](/C=C(\Cl)C(F)(F)F)C2(C)C)cccc1-c1ccccc1` (racemic) [Bifenthrin], the “Current Study Medaka FXRa2 Activity Medaka FXRa2” value at medaka FXRα2 [1] is listed as “exhibited antagonist activity; also recorded: Active”. For the same molecule, at human FXRα [2], half-maximal activity (AC50) was put at 34.6 µM, the “Current Study Human FXRa Activity Human FXRa” value is recorded as “Active” and the concentration giving a half-maximal response (EC50) was determined as 34.6 µM. Also, in the data set with Human FXRa [3], the AC50 was 13.3 µM. For the same molecule, in the data set with Human FXRa [3] (ref Tox21 dataset), the “Tox21 Results Human FXRa Activity Human FXRa” value was “Active” and the “Tox21 Results Human FXRa AC50” value is given as 4.96 µM.
`COc1cc2c(c(OC)c1OC)-c1ccc(OC)c(=O)cc1[C@@H](NC(C)=O)CC2` [Colchicine, reference compound]: at medaka FXRα2 [1], the “Current Study Medaka FXRa2 Activity Medaka FXRa2” value is recorded as “Inactive”. The “Current Study Human FXRa Activity Human FXRa” value at human FXRα [2] is “Inactive”. Moreover, in the data set with Human FXRa [3] (ref Tox21 dataset), the “Tox21 Results Human FXRa Activity Human FXRa” value is “Inactive”.
Turning to Ivermectin [reference compound], the “Current Study Medaka FXRa2 Activity Medaka FXRa2” value at medaka FXRα2 [1] is “Active”. In addition, the AC50 at medaka FXRα2 [1] (read-out: Current Study Medaka FXRa2 AC50) came to 11.2 µM; at human FXRα [2] (setting [9]), 2.35 µM. In addition, the “Current Study Human FXRa Activity Human FXRa” value on human FXRα [2] is reported as “Active”. The “Tox21 Results Human FXRa Activity Human FXRa” value in the data set on Human FXRa [3] (ref Tox21 dataset) is on record as “Active”.
Regarding `O=C1OC(c2ccc(O)cc2)(c2ccc(O)cc2)c2ccccc21` [Phenolphthalein], the “cytotoxicity / toxicity to medaka larvae” value with medaka larvae is on record as “significant cytotoxicity; also recorded: toxic to medaka larvae”.

B1: VP16 activation domain fused to full-length human FXRα (pVP16-hFXRα) (receptor)
chain: MVMQFQGLENPIQISPHCSCTPSGFFMEMMSMKPAKGVLTEQVAGPLGQNLEVEPYSQYSNVQFPQVQPQISSSSYYSNLGFYPQQPEEWYSPGIYELRRMPAETLYQGETEVAEMPVTKKPRMGASAGRIKGDELCVVCGDRASGYHYNALTCEGCKGFFRRSITKNAVYKCKNGGNCVMDMYMRRKCQECRLRKCKEMGMLAECMYTGLLTEIQCKSKRLRKNVKQHADQTVNEDSEGRDLRQVTSTTKSCREKTELTPDQQTLLHFIMDSYNKQRMPQEITNKILKEEFSAEENFLILTEMATNHVQVLVEFTKKLPGFQTLDHEDQIALLKGSAVEAMFLRSAEIFNKKLPSGHSDLLEERIRNSGISDEYITPMFSFYKSIGELKMTQEEYALLTAIVILSPDRQYIKDREAVEKLQEPLLDVLQKLCKIHQPENPQHFACLLGRLTELRTFNHHHAEMLMSWRVNDHKFTPLLCEIWDVQ
For B1, the recruitment with moxidectin and GW4064, percent of that with GW4064 alone in data set [8] worked out at 132%.
